Literature values as cited in patent publication US20060293293A1, “Salmeterol and ciclesonide combination” (Altana Pharma AG, priority 2003, published 2006).

Experiments:
[1] = compared with budesonide

CC(C)C(=O)OCC(=O)[C@@]12O[C@H](C3CCCCC3)O[C@@H]1C[C@H]1[C@@H]3CCC4=CC(=O)C=C[C@]4(C)[C@H]3[C@@H](O)C[C@@]12C [Ciclesonide, [11β,16α(R)]-16,17[(Cyclohexylmethylen)bis(oxy)]-11-hydroxy-21-(2-methyl-1-oxoprop-oxy)pregna-1,4dien-3,20-dion]
anti-inflammatory activity relative to budesonide [1]: higher | systemic activity relative to budesonide [1]: three times lower | metabolism by liver oxidases (liver oxidases): very high | concentration of the drug in the lungs (lungs): high | absorption after oral administration (oral administration): only moderately absorbed | plasma half-life (plasma): low plasma half-life
